How the values were obtained:
circulating tumor cells = assay: Flow cytometry identification and enumeration of circulating tumor cells in mononuclear cells from cancer patients' whole blood stained with CLR1501; format: cell-based, human; conditions: for CK−/EpCAM−/CLR1501+ cells (number): CD45−, CD14−, CD34−, nucleated
From the text: (§1) Whole blood was collected in either Cell Save® collection tubes or ethylenediaminetetraacetic acid (“EDTA”) collection tubes from seven cancer patients with lung (patients 101 and 103), thyroid (patient 102), breast (patient 106), cervical (patient 104), squamous cell carcinoma (107), and colorectal (patient 108) cancer prior to (draw 1) and after (draw 2) therapy, when available. Mononuclear cells were isolated from the whole blood using a Ficoll-Paque density gradient. Cells from each patient were then incubated with an Fc blocker. The cells were then stained with fluorescently-tagged antibodies to CD45, CD14, CD34, EpCAM, and pan-Cytokeratin (CK), and a fluorescent PLE analog (“CLR1501”) for 30 minutes. Cells were then analyzed by flow cytometry to indicate the number of cells from each whole blood sample that were positive and/or negative for a particular marker. According to the current definition, CTCs were identified as live cells that were CD45−, CD14−, CD34−, CK+, and EpCAM+ (“by definition”). Due to prior experience with CD14+ monocytes/macrophages (FIG. 1), CD14+ cells were removed from the analyses due to high uptake of CLR1501. CD34+ normal […] cells were also removed from the analyses.
The first row of Tables 1 and 2 depicts the number of cells from each patient's blood draw that fulfilled the definition of a CTC: CD45−, CD14−, CD34−, CK+, and EpCAM+, and contained a nucleus. The second row depicts the number of cells from each patient's blood draw that were CD45−, CD14−, CD34−, CK+, and contained a nucleus. The third row depicts the number of cells from each patient's blood draw that were CLR 1501+, CD45−, CD14−, CD34−, CK+, and contained a nucleus. The fourth row depicts the number of cells from each patient's blood draw that were CD45−, CD14−, CD34−, and EpCAM+ and contained a nucleus. The fifth row depicts the number of cells from each patient's blood draw that were CLR 1501+, CD45−, CD14−, CD34−, and EpCAM+ and contained a nucleus. The sixth row depicts the number of cells from each patient's blood draw that were CLR 1501+, CD45−, CD14−, CD34−, CK−, and EpCAM−, and contained a nucleus.

[1] = test system: CD14+ monocytes/macrophages; assay: Flow cytometry uptake of CLR1501 in CD14+ cells of patient blood (FIG. 1); format: cell-based, human
From the text: FIG. 1. […] Upper left quadrant indicates CD14−/CLR1501+ cells, upper right indicates CD14+/CLR1501+, bottom right indicates CD14+/CLR1501−, and bottom left indicates CD14−/CLR1501.
Whole blood was collected in either Cell Save® collection tubes or ethylenediaminetetraacetic acid (“EDTA”) collection tubes from seven cancer patients with lung (patients 101 and 103), thyroid (patient 102), breast (patient 106), cervical (patient 104), squamous cell carcinoma (107), and colorectal (patient 108) cancer prior to (draw 1) and after (draw 2) therapy, when available. Mononuclear cells were isolated from the whole blood using a Ficoll-Paque density gradient. Cells from each patient were then incubated with an Fc blocker. The cells were then stained with fluorescently-tagged antibodies to CD45, CD14, CD34, EpCAM, and pan-Cytokeratin (CK), and a fluorescent PLE analog (“CLR1501”) for 30 minutes. Cells were then analyzed by flow cytometry to indicate the number of cells from each whole blood sample that were positive and/or negative for a particular marker. According to the current definition, CTCs were identified as live cells that were CD45−, CD14−, CD34−, CK+, and EpCAM+ (“by definition”). Due to prior experience with CD14+ monocytes/macrophages (FIG. 1), CD14+ cells were removed from the analyses due to high uptake of CLR1501. CD34+ normal […] cells were also removed from the analyses. […]

CD45+ and CD34+ cells = assay: Flow cytometry uptake of CLR1501 in remaining CD45+ and CD34+ cells of patient blood; format: cell-based, human; conditions: same patient, in comparison with CD14+ cells
From the text: as §1

[2] = test system: xenograft and spontaneous tumor models; conditions: over 55 xenograft and spontaneous tumor models; cited from earlier work

## C[N+](C)(C)CCOP(=O)([O-])OCCCCCCCCCCCCCCCCCCc1ccc(C2=C3C=CC=[N+]3[B-](F)(F)n3cccc32)cc1 [CLR1501]
Circulating tumor cells; Cell Save tube, patient 101 draw 1, lung cancer
  CK−/EpCAM−/CLR1501+ cells (number): 1.4 M
Circulating tumor cells; Cell Save tube, patient 101 draw 2, lung cancer
  CK−/EpCAM−/CLR1501+ cells (number): 121,696 cells
Circulating tumor cells; Cell Save tube, patient 102 draw 1, thyroid cancer
  CK−/EpCAM−/CLR1501+ cells (number): 6.7 M
Circulating tumor cells; Cell Save tube, patient 102 draw 2, thyroid cancer
  CK−/EpCAM−/CLR1501+ cells (number): 7.9 M
Circulating tumor cells; Cell Save tube, patient 103, lung cancer
  CK−/EpCAM−/CLR1501+ cells (number): 5.3 M
Circulating tumor cells; Cell Save tube, patient 104 draw 1, cervical cancer
  CK−/EpCAM−/CLR1501+ cells (number): 1.3 M
Circulating tumor cells; Cell Save tube, patient 106, breast cancer
  CK−/EpCAM−/CLR1501+ cells (number): 278 cells
Circulating tumor cells; Cell Save tube, patient 107, carcinoma
  CK−/EpCAM−/CLR1501+ cells (number): 611,622 cells
Circulating tumor cells; Cell Save tube, patient 108 draw 1, colorectal cancer
  CK−/EpCAM−/CLR1501+ cells (number): 1,062 cells
Circulating tumor cells; Cell Save tube, patient 108 draw 2, colorectal cancer
  CK−/EpCAM−/CLR1501+ cells (number): 1.1 M
Circulating tumor cells; EDTA tube, patient 101 draw 1, lung cancer
  CK−/EpCAM−/CLR1501+ cells (number): 1.8 M
Circulating tumor cells; EDTA tube, patient 101 draw 2, lung cancer
  CK−/EpCAM−/CLR1501+ cells (number): 30,222 cells
Circulating tumor cells; EDTA tube, patient 102 draw 1, thyroid cancer
  CK−/EpCAM−/CLR1501+ cells (number): 1.5 M
Circulating tumor cells; EDTA tube, patient 102 draw 2, thyroid cancer
  CK−/EpCAM−/CLR1501+ cells (number): 10.9 M
Circulating tumor cells; EDTA tube, patient 103, lung cancer
  CK−/EpCAM−/CLR1501+ cells (number): 2.5 M
Circulating tumor cells; EDTA tube, patient 104, cervical cancer
  CK−/EpCAM−/CLR1501+ cells (number): 4.0 M
Circulating tumor cells; EDTA tube, patient 106, breast cancer
  CK−/EpCAM−/CLR1501+ cells (number): 19,585 cells
Circulating tumor cells; EDTA tube, patient 107, carcinoma
  CK−/EpCAM−/CLR1501+ cells (number): 147,641 cells
Circulating tumor cells; EDTA tube, patient 108 draw 1, colorectal cancer
  CK−/EpCAM−/CLR1501+ cells (number): 29,584 cells
Circulating tumor cells; EDTA tube, patient 108 draw 2, colorectal cancer
  CK−/EpCAM−/CLR1501+ cells (number): 753,387 cells
Circulating tumor cells; all cancer types, either blood collection tube, listed as 2 vs row 3 of Table 1 or 2
  CK+ cells identified by CLR 1501: 99-100%
Circulating tumor cells; all cancer types, either blood collection tube, listed as 4 vs row 5 of Table 1 or 2
  EpCAM+ cells identified by CLR 1501: 35-100%
Circulating tumor cells; all seven patient samples
  uptake of CLR1501 by CTCs (by definition): positive uptake
[1]; CD14+ monocytes/macrophages, FIG. 1
  uptake of CLR1501 in CD14+ cells: high uptake
[1]; CD45−, CD34− cells from patient 108 (colorectal cancer), FIG. 1 panel B
  cells positive for CD14+ that are also positive for CLR1501: 99.7%
CD45+ and CD34+ cells
  uptake of CLR1501 by remaining CD45+ and CD34+ cells: not take up CLR1501 to a large extent

## C[N+](C)(C)CCOP(=O)([O-])OCCCCCCCCCCCCCCCCCCc1ccc(I)cc1 [CLR1404]
[2]
  uptake and retention in tumors: selective uptake and prolonged retention in tumors

— patent US11467159B2, “Luminescent phospholipid analogs for the identification and isolation of circulating tumor cells” (CELLECTAR BIOSCIENCES, INC., priority 2016, dated 2022)
